Structures are written as SMILES. “Also recorded” adds a separate entry of the source. Like-named read-outs stand apart in the source and are kept apart here.

By IC50 is commonly meant the concentration at which inhibition is half-maximal.

Data set [1] has as its target T1, 5-HT2A receptors (Rattus norvegicus, UniProt P14842).
T1 construct: membrane corresponding to 1 mg of rat cortex; from tissue; host or cells: rat cortex membrane
The data set can be described thus: specific binding to 5-HT2A receptors ([3H]ketanserin, rat cortex membrane). The following applies: for IC50: [3H]ketanserin 0.5 nM, rat cortex, 30 min, 35° C., pH 7.4; for potency as ligand of 5-HT2A receptors versus compound of Example 2' of ES 9600323: in words, from Table 1.

The target in data set [2] is D2 receptors (Rattus norvegicus, UniProt P61169). The data set can be described thus: specific binding to D2 receptors ([3H]spiperone, rat striatum membrane). As to conditions: in words, from Table 1.
Sequence of D2 receptors (P61169 whole entry): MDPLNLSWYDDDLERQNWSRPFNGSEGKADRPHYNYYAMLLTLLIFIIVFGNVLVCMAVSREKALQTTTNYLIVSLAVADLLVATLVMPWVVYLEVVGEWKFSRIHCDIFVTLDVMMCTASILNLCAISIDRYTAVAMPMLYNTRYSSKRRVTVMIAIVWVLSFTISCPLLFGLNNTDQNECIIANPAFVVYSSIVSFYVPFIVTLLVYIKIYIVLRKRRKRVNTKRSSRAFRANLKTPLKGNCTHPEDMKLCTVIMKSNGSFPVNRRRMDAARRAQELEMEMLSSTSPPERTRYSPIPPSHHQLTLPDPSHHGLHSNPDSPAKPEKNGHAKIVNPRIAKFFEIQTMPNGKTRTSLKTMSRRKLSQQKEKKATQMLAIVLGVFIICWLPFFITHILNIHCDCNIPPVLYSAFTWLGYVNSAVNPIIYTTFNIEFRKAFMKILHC
The target of data set [3] is T2, histamine H1 receptors (Cavia porcellus, UniProt P31389).
T2 construct: incubation of guinea-pig cerebellum membranes; from tissue; host or cells: guinea-pig cerebellum membranes
T2 sequence (P31389 whole entry): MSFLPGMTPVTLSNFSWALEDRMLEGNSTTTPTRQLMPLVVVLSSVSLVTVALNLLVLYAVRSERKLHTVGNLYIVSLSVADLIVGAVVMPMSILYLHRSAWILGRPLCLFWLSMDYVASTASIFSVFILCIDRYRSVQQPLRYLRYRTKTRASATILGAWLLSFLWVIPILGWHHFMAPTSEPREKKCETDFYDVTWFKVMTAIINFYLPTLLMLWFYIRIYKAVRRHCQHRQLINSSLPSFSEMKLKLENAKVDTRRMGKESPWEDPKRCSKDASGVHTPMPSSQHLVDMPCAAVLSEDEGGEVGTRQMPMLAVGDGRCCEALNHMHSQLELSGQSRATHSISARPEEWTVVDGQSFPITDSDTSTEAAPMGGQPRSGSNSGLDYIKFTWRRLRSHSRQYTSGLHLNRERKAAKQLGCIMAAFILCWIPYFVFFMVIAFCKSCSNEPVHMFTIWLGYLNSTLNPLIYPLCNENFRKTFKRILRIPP
The data set can be described thus: biochemical. It is filed as binding, guinea-pig. The following applies: for potency as ligand of H1 receptors versus compound of Example 2' of ES 9600323 / potency as ligand of H1 receptors versus promethazine: in words, from Table 2. Here is the method: The bound radioactivity was separated by filtration (Whatman GF/B) in a Brandel Harvester. The amount of receptor-bound radioactivity present in the filters was determined using a Packard 1800TR counter. The specific binding was established with a 1 μM concentration of triprolidine.

The test system of data set [4] is apomorphine-induced climbing behaviour. The data set can be described thus: inhibition test of apomorphine-induced climbing behaviour. It is filed as in vivo, male Swiss mice. The following applies: Mus musculus, 1 h, read-out: Climbing ID50. Here is the method: For the practical performance of this experiment, male Swiss mice weighing 22-24 g were used. One week prior to experiment, animals were kept in our facilities at a temperature of 20-22° C. and 12/12 h light-dark cycle, and had free access to food and water. Two hours prior to experiment, the animals were placed in individual cages without access to food.
Animals were administered orally with test drug or 0.25% agar at time 0. After 60 minutes, apomorphine was subcutaneously injected at a dose of 1 mg/kg, and after further 70 minutes the animal's behaviour was assessed. Two additional assessments were performed at 10-min intervals.
(§1) For assessment, each animal was placed on the bottom of a small upright box ([…]). The walls of the box were made of translucent methacrylate except one of the lateral surfaces (7.5 cm wide) which was a 3-mm wire mesh. The position of the animal was scored for 2 minutes according to the following criteria: 0=four paws on the floor; 1=three paws on the floor; 2=two paws on the floor; 3=one paw on the floor; and 4=four paws holding the wire mesh. If an animal keeps several positions within the 2-min observation, the seconds elapsed in each position will be recorded. Finally, mean scoring was calculated.

The nature of data set [5]: in vivo. As to conditions: rat. The method, then:
as §1

A short description of data set [6]: therapeutic index (catalepsy ED50 / climbing ID50). The following applies: for selectivity ratio: in vivo, po; for therapeutic index versus compound of Example 2' of ES 9600323 and haloperidol: in words, from Table 3. The method, then: as §1
The mark [7] stands for this setting: oral, male Swiss mice, apomorphine 1 mg/kg s.c. after 60 minutes.

T1 sequence (P14842 whole entry): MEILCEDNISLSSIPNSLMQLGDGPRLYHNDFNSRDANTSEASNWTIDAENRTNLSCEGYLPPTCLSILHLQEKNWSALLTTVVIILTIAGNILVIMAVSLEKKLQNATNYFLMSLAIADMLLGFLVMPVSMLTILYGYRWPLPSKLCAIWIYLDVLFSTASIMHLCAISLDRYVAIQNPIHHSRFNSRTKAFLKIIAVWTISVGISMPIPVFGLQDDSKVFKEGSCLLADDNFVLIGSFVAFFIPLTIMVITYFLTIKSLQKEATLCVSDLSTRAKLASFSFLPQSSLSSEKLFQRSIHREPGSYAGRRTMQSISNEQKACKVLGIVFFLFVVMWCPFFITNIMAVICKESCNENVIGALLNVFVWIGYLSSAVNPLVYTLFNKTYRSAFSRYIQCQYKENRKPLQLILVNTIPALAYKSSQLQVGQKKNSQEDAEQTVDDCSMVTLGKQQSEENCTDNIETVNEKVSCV

Take `Cl.O=C(O)c1coc2cc(OCCCN3CCC(c4noc5cc(F)ccc45)CC3)ccc2c1=O` [Example 2, 7-[3-[4-(6-fluorobenzo[d]isoxazole-3-yl)piperidin-1-yl]propoxy]-4-oxochromene-3-carboxylic acid hydrochloride]: in data set [1], the IC50 worked out at 0.594 nM and the “potency as ligand of 5-HT2A receptors versus compound of Example 2' of ES 9600323” value is given as “more potent”. In addition, the “potency as ligand of D2 receptors versus compound of Example 2' of ES 9600323” value in data set [2] is “more potent”.
As to `Cl.O=c1cc(CO)oc2cc(OCCCN3CCC(c4noc5cc(F)ccc45)CC3)ccc12` [Example 6, 7-[3-[4-(6-fluorobenzo[d]isoxazole-3-yl)piperidin-1-yl]propoxy]-2-(hydroxymethyl)-chromen-4-one hydrochloride], in data set [3], the IC50 was determined as 1.01 nM, the “potency as ligand of H1 receptors versus compound of Example 2' of ES 9600323” value is “more potent” and the “potency as ligand of H1 receptors versus promethazine” value is on record as “of the same order as promethazine”. For the same molecule, in data set [4] (setting [7]), the ED50 came to 5.87 mg/kg. Further, in data set [5] (po), the TD50 was above 100 mg/kg. In data set [6], the selectivity ratio is above 17; the “therapeutic index versus compound of Example 2' of ES 9600323 and haloperidol” value is “higher therapeutic index”.
As for `COCc1coc2cc(OCCCN3CCC(c4noc5cc(F)ccc45)CC3)ccc2c1=O.Cl` [Example 3, 7-[3-[4-(6-fluorobenzo[d]isoxazole-3-yl)piperidin-1-yl]propoxy]-3-methoxymethyl-chromen-4-one hydrochloride], in data set [3], half-maximal inhibition (IC50) was put at 0.339 nM and the “potency as ligand of H1 receptors versus compound of Example 2' of ES 9600323” value is “more potent”. In data set [3] (hydrochloride), the “potency as ligand of H1 receptors versus promethazine” value is “of the same order as promethazine; also recorded: greater than that of standard promethazine”. Further, the ED50 in data set [4] (setting [7]) came out at 0.21 mg/kg. Also, the TD50 in data set [5] (po) was determined as 6.79 mg/kg. In data set [6], the selectivity ratio is 32.3; the “therapeutic index versus compound of Example 2' of ES 9600323 and haloperidol” value is listed as “higher therapeutic index”.
Consider `O=C(CCCN1CCC(O)(c2ccc(Cl)cc2)CC1)c1ccc(F)cc1` [Haloperidol, haloperidol, reference compound], for which, in data set [4] (setting [7]), the ED50 is 0.32 mg/kg. In data set [5] (in vivo), this molecule gave a TD50 of 2 mg/kg.
Regarding `O=Cc1coc2cc(OCCCN3CCC(c4noc5cc(F)ccc45)CC3)ccc2c1=O` [Example 1, 7-[3-[4-(6-fluorobenzo[d]isoxazole-3-yl)piperidine-1-yl]propoxy]-3-formyl-chromen-4-one], in data set [1], the IC50 stood at 2.11 nM and the “potency as ligand of 5-HT2A receptors versus compound of Example 2' of ES 9600323” value is on record as “more potent”. Besides, the “potency as ligand of D2 receptors versus compound of Example 2' of ES 9600323” value in data set [2] is listed as “more potent”.
In the case of `O=c1c(CO)coc2cc(OCCCN3CCC(c4noc5cc(F)ccc45)CC3)ccc12` [Ex. 2' (ES 9600323), reference compound], the half-inhibitory concentration (IC50) in data set [1] amounted to 3.08 nM; in data set [3] ([3H]-pyrilamine 1 nM, guinea-pig cerebellum, 25° C., 60 minutes, read-out: IC50, H1 receptors), 1.2 nM. For the same molecule, the ED50 in data set [4] (po) turned out to be 0.25 mg/kg. Further, the TD50 in data set [5] (in vivo) worked out at 3.8 mg/kg.

The record behind these values is US6187793A, “7-[(Piperidin-1-YL)-Propoxy]-chromen-4-one derivatives, their preparation and their pharmaceutical use” (Ferrer Internacional, S.A., priority 1997, dated 2001).
